Literature values as cited in patent publication US20090142410A1, “Nutritional composition and method for increasing creatine uptake and retention in skeletal muscle, increasing muscle mass and strength, increasing exercise capacity and for aiding recovery following exercise” (priority 2006, published 2009).

Conditions: concomitant ingestion with carbohydrates

CN(CC(=O)O)C(=N)N [Creatine, N-methyl-N-guanyl Glycine]
improvement of Creatine retention: up to 60%
